According to patent publication US9309222B2, “Phenyl linked quinolinyl modulators of RORγt” (Janssen Pharmaceutica NV, priority 2012, dated 2016):
Structures can show the parent of a compound that is named as a salt.

Experiments:
[1] = biological target: T1, human RORγt ligand binding domain (RORγt LBD) (Homo sapiens, UniProt P51449); experiment: RORγt ThermoFluor assay (thermal shift, ligand binding affinity); details: estimated from concentration response of thermal shift
T1 construct: His-tag (N); TurboTEV protease cleavage site (ENLYFQG) (N); made in house; host or cells: E. coli (pHIS1, modified pET vector)
T1 sequence (P51449 with tags, fused parts or gaps): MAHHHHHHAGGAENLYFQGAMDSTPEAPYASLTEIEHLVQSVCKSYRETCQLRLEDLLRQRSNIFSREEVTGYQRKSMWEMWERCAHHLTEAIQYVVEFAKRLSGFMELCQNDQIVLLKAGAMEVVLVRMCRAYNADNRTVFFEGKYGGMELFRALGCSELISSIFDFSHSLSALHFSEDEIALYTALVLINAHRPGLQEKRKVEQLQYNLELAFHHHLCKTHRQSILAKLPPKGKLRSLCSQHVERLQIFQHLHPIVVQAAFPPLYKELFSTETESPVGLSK
Protocol: This approach is applicable to a wide variety of systems, and rigorous in theoretical interpretation through quantitation of equilibrium binding constants (KD).
The shift in the melting point described as a ΔTm is proportional to the concentration and affinity of the ligand.
RORγt ThermoFluor® Assay Construct
Protein and compound solutions are dispensed into black 384-well polypropylene PCR microplates (Abgene) and overlayed with silicone oil (1 μL Fluka, type DC 200) to prevent evaporation.
Fluorescence was measured by continuous illumination with UV light (Hamamatsu LC6) supplied via fiber optic and filtered through a band-pass filter (380-400 nm; >6 OD cutoff). Fluorescence emission of the entire 384-well plate was detected by measuring light intensity using a CCD camera (Sensys, Roper Scientific) filtered to detect 500±25 nm, resulting in simultaneous and independent readings of all 384 wells. Images were collected at each temperature, and the sum of the pixel intensity in a given area of the assay plate was recorded versus temperature. Reference wells contained RORγt without compounds, and the assay conditions were as follows: • 0.065 mg/mL RORγt • 60 μM 1,8-ANS • 100 mM Hepes, pH 7.0 • 10 mM NaCl • 2.5 mM GSH • 0.002% Tween-20
Project compounds were arranged in a pre-dosed mother plate (Greiner Bio-one) wherein compounds are serially diluted in 100% DMSO by 1:2 from a high concentration of 10 mM over 12 columns within a series (column 12 is a reference well containing DMSO, no compound).
The compounds were robotically dispensed directly into assay plates (1×=[…]) using a Hummingbird capillary liquid handling instrument (Digilab). Following compound dispense, protein and dye in buffer was added to achieve the final assay volume of 3 μL, followed by 1 μL of silicone oil.

human RORγt LBD = biological target: T2, human RORγt LBD (Homo sapiens, UniProt P51449); experiment: RORγt reporter assay (GAL4-RORγt LBD luciferase in HEK293T cells); type: cell-based; details: for IC50 / RORγt reporter Assay, % inhibition @ 6 μM: HEK293T cells; for IC50: 24 hours compound treatment; for inhibition at 6 µM: HEK-293T, read-out: RORγt reporter Assay, % inhibition @ 6 μM, HEK293T cells, 6 μM compound; for RORγt reporter Assay, % inhibition @ 6 μM: 6 μM compound
T2 construct: expressed in transfected cells
T2 sequence (P51449 258-518): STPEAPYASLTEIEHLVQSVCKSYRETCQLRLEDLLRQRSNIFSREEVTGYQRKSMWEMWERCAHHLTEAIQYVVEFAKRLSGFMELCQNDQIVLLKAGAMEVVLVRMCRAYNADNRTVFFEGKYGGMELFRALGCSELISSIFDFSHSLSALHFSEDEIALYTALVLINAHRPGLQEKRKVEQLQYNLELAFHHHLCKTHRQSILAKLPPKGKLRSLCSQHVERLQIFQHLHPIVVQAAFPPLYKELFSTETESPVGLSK
Description: A reporter assay was used to test functional activity of RORγt modulatory compounds on transcriptional activation driven by the RORγt LBD. Cells used in the assay were co-transfected with two constructs. The first construct, pBIND-RORγt LBD, contained the wild type human RORγt LBD fused to the DNA binding domain of the GAL4 protein. The second construct, pGL4.31 (Promega Cat no. C935A), contained multiple GAL4 responsive DNA elements upstream of firefly luciferase. […] The mutant construct was called pBIND-RORγt-AF2.
The pBIND vector contains the GAL4 DNA Binding Domain (GAL4 DBD) and the renilla luciferase gene under control of the SV40 promoter. Renilla luciferase expression serves as a control for transfection efficiency and cell viability.
The reporter assay was performed by transiently transfecting HEK293T cells with 5 ng of pBIND-RORγt LBD or pBIND-RORγt LBD-AF2 and 5 μg pGL4.31 (Promega Cat no. C935A) using Fugene 6 (Invitrogen Cat no. E2691) at a 1:6 ratio of DNA:Fugene 6 in a T-75 flask in which cells were at least 80% confluent. Twenty four hours after bulk transfection, cells were plated into 96-well plates at 50,000 cells/well in phenol-red free DMEM containing 5% Lipid Reduced FCS and Pen/Strep. Six hours after plating, cells were treated with compounds for 24 hours. Media was removed and cells were lysed with 50 μL 1× Glo Lysis Buffer (Promega). Dual Glo Luciferase Reagent (50 μL/well) was then added and firefly luciferase luminescence was read on an Envision after a ten minute incubation. Finally, Stop and Glo reagent (50 μL/well) was added and renilla luciferase luminescence was read on an Envision after a ten minute incubation. To calculate the effect of compounds on RORγt activity, the ratio of firefly to renilla luciferase was determined and plotted against compound concentration. Agonist compounds increase RORγt-driven luciferase expression, and antagonist or inverse agonist compounds decrease luciferase expression.

| Structure (SMILES) | Kd [1] [nM] | IC50 (human RORγt LBD) [nM] | inhibition at 6 µM (human RORγt LBD) [%] | RORγt reporter Assay, % inhibition @ 6 μM (human RORγt LBD) [%] |
| --- | --- | --- | --- | --- |
| Cn1cncc1C(O)(c1ccncc1)c1ccc2nc(N3CCC(O)CC3)c(-c3ccccc3)c(Cl)c2c1 (centres unmarked) [Example 72, 1-{4-Chloro-6-[hydroxy(1-methyl-1H-imidazol-5-yl)pyridin-4-ylmethyl]-3-phenylquinolin-2-yl}piperidin-4-ol•TFA] | 8500 | ~2000 | 83 |  |
| COc1ccc(C(O)(c2cccnc2)c2ccc3ncc(-c4ccccc4)c(Cl)c3c2)cc1 (centres unmarked) [Example 59, (4-Chloro-3-phenylquinolin-6-yl)(4-methoxyphenyl)pyridin-3-ylmethanol] | 4400 | ~6000 | 37 |  |
| CN(C)CCN(C)c1nc2ccc(C(O)(c3ccncc3)c3cncn3C)cc2c(Cl)c1-c1ccccc1 (centres unmarked) [Example 64, (4-Chloro-2-{[2-(dimethylamino)ethyl](methyl)amino}-3-phenylquinolin-6-yl)(1-methyl-1H-imidazol-5-yl)pyridin-4-ylmethanol•TFA] | 500 | ~4000 | 87 |  |
| COc1ccc(C(O)(c2cccnc2)c2ccc3nc(Cl)c(-c4ccccc4)c(Cl)c3c2)cc1 (centres unmarked) [Example 55, (2,4-Dichloro-3-phenylquinolin-6-yl)(4-methoxyphenyl)(pyridin-3-yl)methanol] | 330 | 820 | 92 |  |
| N#Cc1nc2ccc(C(O)(c3ccc(C(F)(F)F)nc3)c3cccc(Cl)c3)cc2c(C#N)c1-c1ccccc1 (centres unmarked) [Example 114, 6-{(3-Chlorophenyl)(hydroxy) [6-(trifluoromethyl)pyridin-3-yl]methyl}-3-phenylquinoline-2,4-dicarbonitrile] | 610 | 740 | 104 |  |
| CC(C)Oc1c(-c2ccccc2)c(Cl)nc2ccc(C(O)(c3ccncc3)c3cncn3C)cc12 (centres unmarked) [Example 85, [2-Chloro-4-(1-methylethoxy)-3-phenylquinolin-6-yl](1-methyl-1H-imidazol-5-yl)pyridin-4-ylmethanol•TFA] | 130 | 640 | 92 |  |
| Cc1nc2cc(C(O)(c3ccc4nc(Cl)c(-c5ccccc5)c(Cl)c4c3)c3cncn3C)ccc2o1 (centres unmarked) [Example 146, (2,4-Dichloro-3-phenylquinolin-6-yl)(1-methyl-1H-imidazol-5-yl)(2-methylbenzo[d]oxazol-5-yl)methanol] | 77 | 130 | 112 |  |
| Cn1cncc1C(O)(c1ccc(Cl)cc1)c1ccc2nc(Cl)c(-c3ccccc3Cl)c(Cl)c2c1 (single isomer, unassigned) [Example 153d, (4-Chlorophenyl)(2,4-dichloro-3-(2-chlorophenyl)quinolin-6-yl)(1-methyl-1H-imidazol-5-yl)methanol] | 3500 | 1500 |  | 75 |

Continued, values first:

| Kd [1] [nM] | IC50 (human RORγt LBD) [nM] | inhibition at 6 µM (human RORγt LBD) [%] | RORγt reporter Assay, % inhibition @ 6 μM (human RORγt LBD) [%] | Structure (SMILES) |
| --- | --- | --- | --- | --- |
| 68 | 110 | 96 |  | Cn1cncc1C(O)(c1ccncc1)c1cc(F)c2nc(Cl)c(-c3ccccc3)c(Cl)c2c1 (centres unmarked) [Example 155, (2,4-Dichloro-8-fluoro-3-phenylquinolin-6-yl)(1-methyl-1H-imidazol-5-yl)(pyridin-4-yl)methanol•TFA] |
| 9.3 | > 6000 |  |  | COc1nc2c(C)cc(C(O)(c3ccc(C(F)(F)F)nc3)c3cncn3C)cc2c(Cl)c1-c1ccc(OC(F)(F)F)cc1 (racemic) [Example 183a, (4-Chloro-2-methoxy-8-methyl-3-(4-(trifluoromethoxy)phenyl)quinolin-6-yl)(1-methyl-1H-imidazol-5-yl)(6-(trifluoromethyl)pyridin-3-yl)methanol•TFA] |
| 8200 | 2100 | 76 |  | Cc1cc(C(O)(c2ccc(F)cc2)c2cncn2C)cc2c(C#N)c(-c3cccc(F)c3)c(C#N)nc12 (single isomer, unassigned) [Example 175b, 3-(3-Fluorophenyl)-6-((4-fluorophenyl)(hydroxy)(1-methyl-1H-imidazol-5-yl)methyl)-8-methylquinoline-2,4-dicarbonitrile] |
| 200 | 910 | 92 |  | Cn1cncc1C(O)(c1ccncc1)c1ccc2nc(Cl)c(-c3ccccc3)c(Cl)c2c1F (centres unmarked) [Example 162, (2,4-Dichloro-5-fluoro-3-phenylquinolin-6-yl)(1-methyl-1H-imidazol-5-yl)(pyridin-4-yl)methanol•TFA] |
| 57 | 320 | 98 |  | Cc1ccc(C(O)(c2cc(C)c3nc(Cl)c(-c4ccccc4)c(Cl)c3c2)c2cncn2C)cn1 (centres unmarked) [Example 156, (2,4-Dichloro-8-methyl-3-phenylquinolin-6-yl)(1-methyl-1H-imidazol-5-yl)(6-methylpyridin-3-yl)methanol•TFA] |
|  |  | 103 |  | Cn1cncc1C(O)(c1ccc(C(F)(F)F)nc1)c1ccc2nc(C(F)(F)F)c(-c3ccccc3)c(C#N)c2c1 (racemic) [Example 173a, 6-(Hydroxy(1-methyl-1H-imidazol-5-yl)(6-(trifluoromethyl)pyridin-3-yl)methyl)-3-phenyl-2-(trifluoromethyl)quinoline-4-carbonitrile•TFA] |
| 760 | 810 |  | 91 | Cn1cncc1C(O)(c1ccc2nc(C(F)(F)F)c(-c3ccccc3)c(C(F)(F)F)c2c1)c1ccccn1 (single isomer, unassigned) [Example 185c, (1-Methyl-1H-imidazol-5-yl)(3-phenyl-2,4-bis(trifluoromethyl)quinolin-6-yl)(pyridin-2-yl)methanol] |
| 400 | > 6000 | 62 |  | OC(c1ccccc1)(c1ccc2nc(C(F)(F)F)c(-c3ccccc3)c(C(F)(F)F)c2c1)C1CCNCC1 (centres unmarked) [Example 167, Phenyl(3-phenyl-2,4-bis(trifluoromethyl)quinolin-6-yl)(piperidin-4-yl)methanol•TFA] |
|  |  | 100 |  | Cn1cncc1C(O)(c1ccc(C(F)(F)F)nc1)c1ccc2nc(C(F)(F)F)c(-c3ccccc3)c(C#N)c2c1 (single isomer, unassigned) [Example 173b, 6-(Hydroxy(1-methyl-1H-imidazol-5-yl)(6-(trifluoromethyl)pyridin-3-yl)methyl)-3-phenyl-2-(trifluoromethyl)quinoline-4-carbonitrile] |
| 2800 |  |  |  | Cc1ccc(C(O)(c2cc[nH]c2)c2cc(C)c3nc(Cl)c(-c4ccccc4)c(Cl)c3c2)cn1 (centres unmarked) [Example 157, (2,4-Dichloro-8-methyl-3-phenylquinolin-6-yl)(6-methylpyridin-3-yl)(1H-pyrrol-3-yl)methanol•TFA] |
